# Test results from patent publication US4444759A, “GnRH Antagonists II” (The Salk Institute for Biological Studies, priority 1982, dated 1984).
# Square brackets hold non-standard residues; d marks the D form. Peptide text beside a SMILES is read from it. dPhe(4-NO2) = N[C@H](Cc1ccc([N+](=O)[O-])cc1)C(=O)O; dPhe(4-NH2) = Nc1ccc(C[C@@H](N)C(=O)O)cc1; dPhe(4-Br) = N[C@H](Cc1ccc(Br)cc1)C(=O)O; dPhe(4-Cl) = N[C@H](Cc1ccc(Cl)cc1)C(=O)O; dPhe(4-F) = N[C@H](Cc1ccc(F)cc1)C(=O)O; d2Nal = N[C@H](Cc1ccc2ccccc2c1)C(=O)O
# Test system: LH released by 3 nanomolar GnRH in dissociated rat pituitary cells
# Assay type: cell-based
# Conditions: not given
# Protocol: The peptide is assayed in vitro and in vivo. The in vitro test is made using dissociated rat pituitary cells maintained in culture for 4 days prior to the assay. The levels of LH mediated in response to the application of peptides is assayed by specific radioimmunoassay for rat LH. Control dishes of cells only receive a measure which is 3 nanomolar in GnRH; experimental dishes receive a measure 3 nanomolar in GnRH plus a measure having either the present standard antagonist (for comparison purposes) i.e. [Ac-dehydro Pro^1, 4-F-D-Phe^2, D-Trp^3,6 ]-GnRH or the test peptide in concentrations ranging from 0.01 to 10 nanomolar. The amount of LH secreted in the samples treated only with GnRH is compared with that secreted by the samples treated with the peptide plus GnRH.
# The ability of the test peptide to reduce the amount of LH released by 3 nanomolar GnRH is compared to that of the present standard peptide. The results are calculated using 3-5 doses of each of the peptides by the statistical program BIOPROG (provided by D. Rodbard NICHD) and are expressed as a potency relative to the present standard. The standard peptide usually blocks 50% of the LH released by GnRH at less than a ratio of 0.1 [antagonist]/1[GnRH].
row,Compound,"in vitro Potency relative to [Ac-dehydro Pro1, 4-F-D-Phe2, D-Trp3,6]-GnRH"
1,CCNC(=O)[C@@H]1CCCN1C(=O)[C@H](CCCNC(=N)N)NC(=O)[C@H](CC(C)C)NC(=O)[C@@H](CCCNC(=N)N)NC(=O)[C@H](Cc1ccc(O)cc1)NC(=O)[C@H](CO)NC(=O)[C@@H](Cc1c[nH]c2ccccc12)NC(=O)[C@@H](Cc1ccc(Br)cc1)NC(=O)[C@@H](Cc1ccc2ccccc2c1)NC(C)=O [Peptide 6] (Ac-[d2Nal][dPhe(4-Br)][dW]SY[dR]LRP-NHEt),0.46
2,"CC(=O)N[C@H](Cc1ccc2ccccc2c1)C(=O)N[C@H](Cc1ccc(F)cc1)C(=O)N[C@H](Cc1c[nH]c2ccccc12)C(=O)N[C@@H](CO)C(=O)N[C@@H](Cc1ccc(O)cc1)C(=O)N[C@H](CCCNC(=N)N)C(=O)N[C@@H](CC(C)C)C(=O)N[C@@H](CCCNC(=N)N)C(=O)N1CCC[C@H]1C(=O)NCC(N)=O [Peptide 1, [Ac-β-D-2NAL^1,4-F-D-Phe^2,D-Trp^3, D-Arg^6]-GnRH] (Ac-[d2Nal][dPhe(4-F)][dW]SY[dR]LRPG-NH2)",0.44
3,CC(=O)N[C@H](Cc1ccc2ccccc2c1)C(=O)N[C@H](Cc1ccc(Cl)cc1)C(=O)N[C@H](Cc1c[nH]c2ccccc12)C(=O)N[C@@H](CO)C(=O)N[C@@H](Cc1ccc(O)cc1)C(=O)N[C@H](CCCNC(=N)N)C(=O)N[C@@H](CC(C)C)C(=O)N[C@@H](CCCNC(=N)N)C(=O)N1CCC[C@H]1C(=O)NCC(N)=O [Peptide 3] (Ac-[d2Nal][dPhe(4-Cl)][dW]SY[dR]LRPG-NH2),0.56
4,CC(=O)N[C@H](Cc1ccc2ccccc2c1)C(=O)N[C@H](Cc1ccc(F)cc1)C(=O)N[C@H](Cc1c[nH]c2ccccc12)C(=O)N[C@@H](CO)C(=O)N[C@@H](Cc1ccc(O)cc1)C(=O)N[C@H](Cc1ccc(N)cc1)C(=O)N[C@@H](CC(C)C)C(=O)N[C@@H](CCCNC(=N)N)C(=O)N1CCC[C@H]1C(=O)NCC(N)=O [Peptide 2] (Ac-[d2Nal][dPhe(4-F)][dW]SY[dPhe(4-NH2)]LRPG-NH2),1.4
5,CCNC(=O)[C@@H]1CCCN1C(=O)[C@H](CCCNC(=N)N)NC(=O)[C@H](CC(C)C)NC(=O)[C@@H](CCCNC(=N)N)NC(=O)[C@H](Cc1ccc(O)cc1)NC(=O)[C@H](CO)NC(=O)[C@@H](Cc1c[nH]c2ccccc12)NC(=O)[C@@H](Cc1ccc(Cl)cc1)NC(=O)[C@@H](Cc1ccc2ccccc2c1)NC(C)=O [Peptide 4] (Ac-[d2Nal][dPhe(4-Cl)][dW]SY[dR]LRP-NHEt),0.38
6,CC(=O)N[C@H](Cc1ccc2ccccc2c1)C(=O)N[C@H](Cc1ccc(F)cc1)C(=O)N[C@H](Cc1c[nH]c2ccccc12)C(=O)N[C@@H](CO)C(=O)N[C@@H](Cc1ccc(O)cc1)C(=O)N[C@H](CCCNC(=N)N)C(=O)N[C@@H](CC(C)C)C(=O)N[C@@H](CCCNC(=N)N)C(=O)N1CCC[C@H]1C(=O)N[C@H](C)C(N)=O [Peptide 7] (Ac-[d2Nal][dPhe(4-F)][dW]SY[dR]LRP[dA]-NH2),0.63
7,CCNC(=O)[C@@H]1CCCN1C(=O)[C@H](CCCNC(=N)N)NC(=O)[C@H](CC(C)C)NC(=O)[C@@H](CCCNC(=N)N)NC(=O)[C@H](Cc1ccc(O)cc1)NC(=O)[C@H](CO)NC(=O)[C@@H](Cc1c[nH]c2ccccc12)NC(=O)[C@@H](Cc1ccc([N+](=O)[O-])cc1)NC(=O)[C@@H](Cc1ccc2ccccc2c1)NC(C)=O [Peptide 5] (Ac-[d2Nal][dPhe(4-NO2)][dW]SY[dR]LRP-NHEt),0.20

# Same assay, conditions: 3 nanomolar GnRH; usual value
row,Compound,ratio [antagonist]/1[GnRH] that blocks 50% of the LH released by GnRH
1,"[Ac-dehydro Pro^1, 4-F-D-Phe^2, D-Trp^3,6 ]-GnRH [standard peptide, reference compound]",< 0.1 [antagonist]/1[GnRH]
